As usually defined, the pEC50 is the EC50 on a negative log10 scale, so that one unit is a factor of ten. Read a low pEC50 as a high EC50.

This note sets out measurements from ChEMBL document CHEMBL1152743, “Design and synthesis of 1,2-annulated adamantane piperidines with anti-influenza virus activity” (Bioorg Med Chem, 2009).

Data set [1] concerns Influenza A virus. It is filed as functional, organism-based. The note with it: H3N2, 500 uM.
In data set [2] the test system is Influenza B virus. As to the kind of experiment: Antiviral activity against influenza B virus. It is filed as functional, organism-based.
Data set [3] concerns Influenza A virus. As to the kind of experiment: microbe, parasite or virus in culture. The note with it: H3N2, 72 h.
Description: (§1) Antiviral activity against influenza A virus H3N2 assessed as inhibition of virus-induced cytopathic effect after 72 hrs by MTS assay
Data set [4] can be described thus: Selectivity index, ratio of MCC for MDCK cells to EC50 for influenza A virus H3N2. In kind it is toxicity, cell-based. The note with it: dog.
The nature of data set [5]: Cytotoxicity against MDCK cells assessed as changes in cell morphology after 72 hrs […]. It is filed as cell-based, Canis lupus familiaris. The note with it: dog. Background: Formazan colour is commonly taken as a measure of viable cells.
Data set [6] has as its system Influenza A virus.
Description: as §1

pEC50: −log10 of the molar value. Calls of active or inactive are those of the source. The rule behind the calls is not given here.

Take `CCN1CCC23CC4CC(CC(C4)C2C1)C3` (stereo not given): the outcome in data set [1] and in data set [2] was inactive.

On to `CN1CCC2C3CC4CC(C3)CC2(C4)C1` (stereo not given), for which the outcome in data set [1] and in data set [2] was inactive.

On to `CCN1CCC23CC4CC(CC(C4)C12)C3` (stereo not given), for which the pEC50 in data set [3] is 5.47. In addition, in data set [4], the selectivity ratio came out at 128. Also, the MCC at 72 h in data set [5] was found to be 439 µM. Besides, the outcome in data set [2] was inactive.

On to `NC(=O)c1ncn([C@@H]2O[C@H](CO)[C@@H](O)[C@H]2O)n1` [RIBAVIRIN], for which, in data set [5], the MCC at 72 h was 20 µM. This compound had a pEC50 in data set [6] of 5.06. Further, in data set [2], the result was inactive.

Take `C1CNC2C3CC4CC(C3)CC2(C1)C4` (stereo not given): the negative-log EC50 (pEC50) in data set [3] was 5.39. Besides, the selectivity ratio in data set [4] was 106. Moreover, the MCC at 72 h in data set [5] worked out at 439 µM. For the same compound, in data set [2], the result was inactive.

Compound `CN1CCCC23CC4CC(CC(C4)C12)C3` (stereo not given) showed a pEC50 in data set [3] of 5.36. Besides, the selectivity ratio in data set [4] stood at 19. Also, in data set [5], the MCC at 72 h stood at 83 µM. Further, the result in data set [2] was inactive.

As to `C1CC23CC4CC(CC(C4)C2CN1)C3` (stereo not given), the outcome in data set [1] and in data set [2] was inactive.

As to `NC12CC3CC(CC(C3)C1)C2` [AMANTADINE], in data set [3], the pEC50 was 5.70. In addition, in data set [4], the selectivity ratio is more than 250. For the same compound, the MCC at 72 h in data set [5] was more than 500 µM. In addition, in data set [2], the outcome was inactive.

`CN1CCC23CC4CC(CC(C4)C2C1)C3` (stereo not given): the result in data set [1] and in data set [2] was inactive.

The compound `CN1CCC23CC4CC(CC(C4)C12)C3` (stereo not given) had a pEC50 in data set [3] of 5.11. Moreover, the selectivity ratio in data set [4] was 11. Further, the MCC at 72 h in data set [5] came out at 83 µM. Also, the outcome in data set [2] was inactive.

`CC(N)C12CC3CC(CC(C3)C1)C2` (stereo not given) [RIMANTADINE] gave a pEC50 in data set [3] of 6.44. The MCC at 72 h in data set [5] is more than 500 µM. Further, in data set [2], the result was inactive.

Take `C1CC2C3CC4CC(C3)CC2(CN1)C4` (stereo not given): the pEC50 in data set [3] was 6.22. For the same compound, in data set [4], the selectivity ratio is more than 732. In data set [5], the MCC at 72 h came to 439 µM. In data set [2], the outcome was inactive.

In data set [3], `C1C2CC3CC1CC1(CNCC31)C2` (stereo not given) showed a pEC50 of 6.30. For the same compound, the selectivity ratio in data set [4] was 200. In addition, the MCC at 72 h in data set [5] was 94 µM. In data set [2], the outcome was inactive.

For the compound `CN1CC2C3CC4CC(C3)CC2(C4)C1` (stereo not given), the pEC50 in data set [3] was 5.62. Also, in data set [4], the selectivity ratio was 35. Besides, in data set [5], the MCC at 72 h was 83 µM. Moreover, in data set [2], the outcome was inactive.

Consider `C1CC23CC4CC(CC(C4)C2N1)C3` (stereo not given), for which the pEC50 in data set [3] is 5.66. Also, in data set [4], the selectivity ratio was 217. Also, in data set [5], the MCC at 72 h is 468 µM. Moreover, the result in data set [2] was inactive.
